Experimental data as given in PubChem BioAssay (NCI).
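Method: 48-hour compound exposure of cells in 96-well plates, five concentrations, linear interpolation of endpoints. Abbreviation: GI50, concentration required for 50% inhibition of growth. TGI: total growth inhibition.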

Experiments:
Assay in all cases: NCI tumour cell line growth inhibition, 48 h
[1] = test system: BT-549 breast
[2] = test system: HS 578T breast
[3] = test system: HT29 colon
[4] = test system: IGROV1 ovarian
[5] = test system: MALME-3M melanoma
[6] = test system: MDA-MB-231 breast
[7] = test system: MDA-MB-435
[8] = test system: MDA-N
[9] = test system: NCI/ADR-RES ovarian
[10] = test system: OVCAR-4 ovarian
[11] = test system: OVCAR-8 ovarian

O=C(N/N=C/c1ccccc1)c1cccc2nc3ccccc3nc12
TGI [1]: > 100 µM | TGI [2]: > 72.9 µM | TGI [3]: > 100 µM | TGI [4]: > 100 µM | TGI [5]: > 100 µM | TGI [6]: > 100 µM | TGI [7]: > 100 µM | TGI [8]: > 100 µM | TGI [9]: > 100 µM | TGI [10]: > 100 µM | TGI [11]: > 100 µM

CCOP(=O)(OCC)OC1c2[nH]cc(C(=O)OCc3ccccc3)c2-c2cc(C(=O)OC)[nH]c2C1OC (stereo unspecified)
TGI [1]: 45.9 µM | TGI [2]: > 100 µM | TGI [3]: > 48.4 µM | TGI [4]: 31.6 µM | TGI [5]: 60 µM | TGI [6]: 37 µM | TGI [7]: > 100 µM | TGI [8]: > 100 µM | TGI [9]: 59.5 µM | TGI [10]: > 100 µM | TGI [11]: > 62.8 µM

Cn1cc(-c2csc(-c3cn(C)c4ccccc34)n2)c2ccccc21
TGI [1]: > 100 µM | TGI [2]: > 100 µM | TGI [3]: > 100 µM | TGI [4]: > 100 µM | TGI [5]: 70 µM | TGI [6]: 60.1 µM | TGI [7]: > 100 µM | TGI [8]: > 100 µM | TGI [9]: > 100 µM | TGI [10]: > 100 µM | TGI [11]: > 100 µM

CCOC(=O)c1c(NC(=S)Nc2ccccc2)sc2c1CCOC2
TGI [1]: 58 µM | TGI [2]: > 100 µM | TGI [3]: > 100 µM | TGI [4]: > 100 µM | TGI [5]: > 100 µM | TGI [6]: > 100 µM | TGI [7]: > 100 µM | TGI [8]: > 100 µM | TGI [9]: > 100 µM | TGI [10]: > 100 µM | TGI [11]: > 100 µM

COc1ccc(-c2oc3c(OC)c(OC)cc(O)c3c(=O)c2OC)cc1
TGI [1]: > 100 µM | TGI [2]: > 100 µM | TGI [3]: > 100 µM | TGI [4]: > 100 µM | TGI [5]: > 100 µM | TGI [6]: > 100 µM | TGI [7]: > 100 µM | TGI [8]: > 100 µM | TGI [9]: > 100 µM | TGI [10]: > 100 µM | TGI [11]: > 100 µM

CC(=O)Oc1ccc2c3c1O[C@H]1[C@H](O)CC[C@@]4(O)[C@@H](C2)N(C)CC[C@]314
TGI [1]: > 100 µM | TGI [2]: > 100 µM | TGI [3]: > 100 µM | TGI [4]: > 100 µM | TGI [5]: > 100 µM | TGI [6]: > 100 µM | TGI [7]: > 100 µM | TGI [8]: > 100 µM | TGI [9]: > 100 µM | TGI [10]: > 100 µM | TGI [11]: > 100 µM

CC(Cl)CC(=O)OCC1CCCN2CCCCC12 (stereo unspecified)
TGI [1]: > 100 µM | TGI [2]: > 100 µM | TGI [3]: > 100 µM | TGI [5]: > 100 µM | TGI [6]: > 100 µM | TGI [7]: > 100 µM | TGI [8]: > 100 µM | TGI [9]: > 100 µM | TGI [10]: > 100 µM | TGI [11]: > 100 µM

N#Cc1c(O)c(/C=N/c2ncccn2)c(=O)n2c1[nH]c1ccccc12
TGI [1]: > 100 µM | TGI [2]: > 100 µM | TGI [3]: > 100 µM | TGI [4]: > 100 µM | TGI [5]: > 100 µM | TGI [6]: > 100 µM | TGI [7]: > 100 µM | TGI [8]: > 100 µM | TGI [9]: > 100 µM | TGI [10]: > 100 µM | TGI [11]: > 100 µM

CC1C(C#N)(C#N)C(C#N)=C(N)C1(Cl)[N+](=O)[O-] (stereo unspecified)
TGI [1]: 26.3 µM | TGI [2]: 46.1 µM | TGI [3]: 23.5 µM | TGI [4]: 22.5 µM | TGI [5]: 18.7 µM | TGI [6]: 26.9 µM | TGI [7]: 31.6 µM | TGI [8]: 21.3 µM | TGI [9]: 34.2 µM | TGI [10]: 25.8 µM | TGI [11]: 28.7 µM

COc1cc(OC)c2[nH]c3c(O)c(-c4c(C)cc5c([nH]c6c(OC)cc(OC)cc65)c4O)c(C)cc3c2c1
TGI [1]: 16.1 µM | TGI [2]: 20.2 µM | GI50 [3]: 8.03 µM | TGI [3]: 14.8 µM | TGI [4]: 13.7 µM | TGI [6]: 19.1 µM | GI50 [7]: 12 µM | TGI [7]: 24.9 µM | GI50 [8]: 8.83 µM | TGI [8]: 15.7 µM | TGI [9]: 16.6 µM | TGI [10]: 21.4 µM | TGI [11]: 15.3 µM

CC[C@@]1(O)C(=O)OCc2c1cc1n(c2=O)Cc2c-1nc1ccccc1c2/C=N/NC(=O)c1ccc(N)cc1
TGI [1]: > 100 µM | TGI [2]: > 100 µM | TGI [3]: > 100 µM | TGI [5]: > 87.8 µM | TGI [6]: > 100 µM | TGI [7]: > 100 µM | TGI [8]: > 37.6 µM | TGI [9]: > 37.8 µM | TGI [10]: > 100 µM | TGI [11]: > 100 µM

CN(C)Cc1cc(N=Nc2ccc(Cl)cc2)cc(CN(C)C)c1O
TGI [1]: 23.8 µM | TGI [2]: 27.7 µM | TGI [3]: 19 µM | TGI [4]: 12 µM | TGI [5]: 28.6 µM | TGI [6]: 20.9 µM | TGI [7]: 24.6 µM | TGI [8]: 29.2 µM | TGI [9]: 13.6 µM | TGI [11]: 12.7 µM

Cc1ccc(N/C(SCc2ccccc2)=C(\C(Cl)=C(Cl)Cl)[N+](=O)[O-])c(C)c1
TGI [1]: 36.5 µM | TGI [2]: 68.4 µM | TGI [3]: > 100 µM | TGI [5]: 47.5 µM | TGI [6]: 34.8 µM | TGI [7]: 26.1 µM | TGI [8]: 65.1 µM | TGI [9]: 56.5 µM | TGI [10]: 54 µM | TGI [11]: 32.7 µM

Cc1[nH]c(=O)nc(NNCc2ccc(Cl)cc2)c1C(=O)Nc1ccc(Cl)cc1
TGI [1]: > 100 µM | TGI [2]: > 100 µM | TGI [4]: > 100 µM | TGI [5]: > 100 µM | TGI [6]: > 100 µM | TGI [7]: > 100 µM | TGI [8]: > 100 µM | TGI [9]: > 100 µM | TGI [10]: > 100 µM | TGI [11]: > 100 µM

Cc1ccc2c(/C=C/c3ccc(N(C)C)cc3)ccc(C(C)C)cc1-2
TGI [1]: > 100 µM | TGI [2]: > 100 µM | TGI [3]: > 100 µM | TGI [4]: > 100 µM | TGI [5]: > 100 µM | TGI [6]: > 100 µM | TGI [7]: > 100 µM | TGI [8]: > 100 µM | TGI [9]: > 100 µM | TGI [11]: > 100 µM

OC1CSc2nc3ccccc3n2C1 (stereo unspecified)
TGI [1]: > 100 µM | TGI [2]: 77.7 µM | TGI [3]: > 100 µM | TGI [4]: > 100 µM | TGI [5]: > 100 µM | TGI [6]: > 100 µM | TGI [7]: > 100 µM | TGI [8]: > 100 µM | TGI [9]: > 100 µM | TGI [11]: > 100 µM
